# System: MCH receptors
# Assay: MCH receptor activity class (method not given)
# Conditions: class by percent of control at 10^−7 M or IC50
row,Structure (SMILES),class
1,Cc1cc(N(C)C)nc(N[C@H]2CC[C@@H](NC(=O)c3ccc(F)c(C(F)(F)F)c3)CC2)n1 [compound 2961],1 (Class 1: The value of percent of control at 10^−7 M was less than 40% or the value of IC50 was less than 50 nM.)
2,"Cc1cc(N(C)C)nc(N[C@H]2CC[C@@H](NC(=O)c3cc(F)cc(C(F)(F)F)c3)CC2)n1 [compound 2962, N-(cis-4-{[4-(dimethylamino)-6-methylpyrimidin-2-yl]amino}cyclohexyl)-3-fluoro-5-(trifluoromethyl)benzamide]",1 (Class 1: The value of percent of control at 10^−7 M was less than 40% or the value of IC50 was less than 50 nM.)
3,Cc1cc(N(C)C)nc(N[C@H]2CC[C@@H](NC(=O)c3ccc(F)c(Cl)c3)CC2)n1 [compound 2963],1 (Class 1: The value of percent of control at 10^−7 M was less than 40% or the value of IC50 was less than 50 nM.)
4,"Cc1cc(N(C)C)nc(N[C@H]2CC[C@@H](NC(=O)c3ccc(F)c(C)c3)CC2)n1 [compound 2964, N-(cis-4-{[4-(dimethylamino)-6-methylpyrimidin-2-yl]amino}cyclohexyl)-4-fluoro-3-methylbenzamide]",1 (Class 1: The value of percent of control at 10^−7 M was less than 40% or the value of IC50 was less than 50 nM.)
5,"Cc1cc(N(C)C)nc(N[C@H]2CC[C@@H](NC(=O)c3ccc(C)c(F)c3)CC2)n1 [compound 2965, N-(cis-4-{[4-(dimethylamino)-6-methylpyrimidin-2-yl]amino}cyclohexyl)-3-fluoro-4-methylbenzamide]",1 (Class 1: The value of percent of control at 10^−7 M was less than 40% or the value of IC50 was less than 50 nM.)
6,"Cc1cc(N(C)C)nc(N[C@H]2CC[C@@H](NC(=O)c3cc(Cl)cc(Cl)c3)CC2)n1 [compound 2966, 3,5-dichloro-N-(cis-4-{[4-(dimethylamino)-6-methylpyrimidin-2-yl]amino}cyclohexyl)benzamide]",1 (Class 1: The value of percent of control at 10^−7 M was less than 40% or the value of IC50 was less than 50 nM.)
7,"Cc1cc(N(C)C)nc(N[C@H]2CC[C@@H](NC(=O)c3cccc(OC(F)(F)F)c3)CC2)n1 [compound 2967, N-(cis-4-{[4-(dimethylamino)-6-methylpyrimidin-2-yl]amino}cyclohexyl)-3-(trifluoromethoxy)benzamide]",1 (Class 1: The value of percent of control at 10^−7 M was less than 40% or the value of IC50 was less than 50 nM.)
8,"Cc1cc(N(C)C)nc(N[C@H]2CC[C@@H](NC(=O)c3cc(F)cc(F)c3)CC2)n1 [compound 2968, N-(cis-4-{[4-(dimethylamino)-6-methylpyrimidin-2-yl]amino}cyclohexyl)-3,5-difluorobenzamide]",1 (Class 1: The value of percent of control at 10^−7 M was less than 40% or the value of IC50 was less than 50 nM.)
9,"Cc1cc(N(C)C)nc(N[C@H]2CC[C@@H](NC(=O)c3ccc(Br)c(C)c3)CC2)n1 [compound 2969, 4-bromo-N-(cis-4-{[4-(dimethylamino)-6-methylpyrimidin-2-yl]amino}cyclohexyl)-3-methylbenzamide]",1 (Class 1: The value of percent of control at 10^−7 M was less than 40% or the value of IC50 was less than 50 nM.)
10,"CCc1cccc(C(=O)N[C@H]2CC[C@@H](Nc3nc(C)cc(N(C)C)n3)CC2)c1 [compound 2970, N-(cis-4-{[4-(dimethylamino)-6-methylpyrimidin-2-yl]amino}cyclohexyl)-3-ethylbenzamide]",3 (Class 3 The value of percent of control at 10^−7 M was more than 60% or the value of IC50 was more than 200 nM.)
11,CCOc1ccc(C(=O)N[C@H]2CC[C@@H](Nc3nc(C)cc(N(C)C)n3)CC2)cc1 [compound 2971],3 (Class 3 The value of percent of control at 10^−7 M was more than 60% or the value of IC50 was more than 200 nM.)
12,"Cc1cc(N(C)C)nc(N[C@H]2CC[C@@H](NC(=O)c3ccc(C(F)(F)F)cc3)CC2)n1 [compound 2972, N-(cis-4-{[4-(dimethylamino)-6-methylpyrimidin-2-yl]amino}cyclohexyl)-4-(trifluoromethyl)benzamide]",2 (Class 2: The value of percent of control at 10^−7 M was from 40% to 60% or the value of IC′50 was from 50 nM to 200 nM.)
13,"Cc1cc(N(C)C)nc(N[C@H]2CC[C@@H](NC(=O)c3ccc(Br)cc3)CC2)n1 [compound 2973, 4-bromo-N-(cis-4-{[4-(dimethylamino)-6-methylpyrimidin-2-yl]amino}cyclohexyl)benzamide]",1 (Class 1: The value of percent of control at 10^−7 M was less than 40% or the value of IC50 was less than 50 nM.)
14,"CCc1ccc(C(=O)N[C@H]2CC[C@@H](Nc3nc(C)cc(N(C)C)n3)CC2)cc1 [compound 2974, N-(cis-4-{[4-(dimethylamino)-6-methylpyrimidin-2-yl]amino}cyclohexyl)-4-ethylbenzamide]",2 (Class 2: The value of percent of control at 10^−7 M was from 40% to 60% or the value of IC′50 was from 50 nM to 200 nM.)
15,"CCOc1cc(OCC)cc(C(=O)N[C@H]2CC[C@@H](Nc3nc(C)cc(N(C)C)n3)CC2)c1 [compound 2975, N-(cis-4-{[4-(dimethylamino)-6-methylpyrimidin-2-yl]amino}cyclohexyl)-3,5-diethoxybenzamide]",1 (Class 1: The value of percent of control at 10^−7 M was less than 40% or the value of IC50 was less than 50 nM.)
16,"CCOc1cccc(C(=O)N[C@H]2CC[C@@H](Nc3nc(C)cc(N(C)C)n3)CC2)c1 [compound 2976, N-(cis-4-{[4-(dimethylamino)-6-methylpyrimidin-2-yl]amino}cyclohexyl)-3-ethoxybenzamide]",2 (Class 2: The value of percent of control at 10^−7 M was from 40% to 60% or the value of IC′50 was from 50 nM to 200 nM.)
17,"Cc1cc(N(C)C)nc(N[C@H]2CC[C@@H](NC(=O)c3cccc(OC(C)C)c3)CC2)n1 [compound 2977, N-(cis-4-{[4-(dimethylamino)-6-methylpyrimidin-2-yl]amino}cyclohexyl)-3-isopropoxybenzamide]",1 (Class 1: The value of percent of control at 10^−7 M was less than 40% or the value of IC50 was less than 50 nM.)
18,"Cc1cc(N(C)C)nc(N[C@H]2CC[C@@H](NC(=O)c3cncc(Br)c3)CC2)n1 [compound 2978, 5-bromo-N-(cis-4-{[4-(dimethylamino)-6-methylpyrimidin-2-yl]amino}cyclohexyl)nicotinamide]",1 (Class 1: The value of percent of control at 10^−7 M was less than 40% or the value of IC50 was less than 50 nM.)
19,"Cc1cc(N(C)C)nc(N[C@H]2CC[C@@H](NC(=O)c3ccc(Br)o3)CC2)n1 [compound 2979, 5-bromo-N-(cis-4-{[4-(dimethylamino)-6-methylpyrimidin-2-yl]amino}cyclohexyl)-2-furamide]",1 (Class 1: The value of percent of control at 10^−7 M was less than 40% or the value of IC50 was less than 50 nM.)
20,"Cc1cc(N(C)C)nc(N[C@H]2CC[C@@H](NC(=O)c3ccc(Cl)o3)CC2)n1 [compound 2980, 5-chloro-N-(cis-4-{[4-(dimethylamino)-6-methylpyrimidin-2-yl]amino}cyclohexyl)-2-furamide]",1 (Class 1: The value of percent of control at 10^−7 M was less than 40% or the value of IC50 was less than 50 nM.)
21,"COc1ccc(C(=O)N[C@H]2CC[C@@H](Nc3nc(C)cc(N(C)C)n3)CC2)cc1C(F)(F)F [compound 2981, N-(cis-4-{[4-(dimethylamino)-6-methylpyrimidin-2-yl]amino}cyclohexyl)-4-methoxy-3-(trifluoromethyl)benzamide]",2 (Class 2: The value of percent of control at 10^−7 M was from 40% to 60% or the value of IC′50 was from 50 nM to 200 nM.)
22,Cc1cc(N(C)C)nc(N[C@H]2CC[C@@H](NC(=O)c3ccc(Cl)c(C(F)(F)F)c3)CC2)n1 [compound 2982],1 (Class 1: The value of percent of control at 10^−7 M was less than 40% or the value of IC50 was less than 50 nM.)
23,"Cc1cccc(C(=O)N[C@H]2CC[C@@H](Nc3nc(C)cc(N(C)C)n3)CC2)c1 [compound 2983, N-(cis-4-{[4-(dimethylamino)-6-methylpyrimidin-2-yl]amino}cyclohexyl)-3-methylbenzamide]",1 (Class 1: The value of percent of control at 10^−7 M was less than 40% or the value of IC50 was less than 50 nM.)
24,"COc1cccc(C(=O)N[C@H]2CC[C@@H](Nc3nc(C)cc(N(C)C)n3)CC2)c1 [compound 2984, N-(cis-4-{[4-(dimethylamino)-6-methylpyrimidin-2-yl]amino}cyclohexyl)-3-methoxybenzamide]",1 (Class 1: The value of percent of control at 10^−7 M was less than 40% or the value of IC50 was less than 50 nM.)
25,"Cc1ccc(C(=O)N[C@H]2CC[C@@H](Nc3nc(C)cc(N(C)C)n3)CC2)cc1 [compound 2985, N-(cis-4-{[4-(dimethylamino)-6-methylpyrimidin-2-yl]amino}cyclohexyl)-4-methylbenzamide]",1 (Class 1: The value of percent of control at 10^−7 M was less than 40% or the value of IC50 was less than 50 nM.)
26,Cc1cc(N(C)C)nc(N[C@H]2CC[C@@H](NC(=O)c3ccc(Cl)cc3)CC2)n1 [compound 2986],1 (Class 1: The value of percent of control at 10^−7 M was less than 40% or the value of IC50 was less than 50 nM.)
27,Cc1cc(N(C)C)nc(N[C@H]2CC[C@@H](NC(=O)c3cccc(Cl)c3)CC2)n1 [compound 2987],1 (Class 1: The value of percent of control at 10^−7 M was less than 40% or the value of IC50 was less than 50 nM.)
28,"Cc1cc(N(C)C)nc(N[C@H]2CC[C@@H](NC(=O)c3ccc(F)c(F)c3)CC2)n1 [compound 2988, N-(cis-4-{[4-(dimethylamino)-6-methylpyrimidin-2-yl]amino}cyclohexyl)-3,4-difluorobenzamide]",1 (Class 1: The value of percent of control at 10^−7 M was less than 40% or the value of IC50 was less than 50 nM.)
29,"Cc1cc(N(C)C)nc(N[C@H]2CC[C@@H](NC(=O)c3ccc(OC(F)(F)F)cc3)CC2)n1 [compound 2989, N-(cis-4-{[4-(dimethylamino)-6-methylpyrimidin-2-yl]amino}cyclohexyl)-4-(trifluoromethoxy)benzamide]",3 (Class 3 The value of percent of control at 10^−7 M was more than 60% or the value of IC50 was more than 200 nM.)

# — patent US20050197350A1, “Novel quinoline, tetrahydroquinazoline, and pyrimidine derivatives and methods of treatment related to the use thereof” (TAISHO PHARMACEUTICAL CO., LTD., priority 2003, published 2005)
